Experimental data published in ChEMBL document CHEMBL3879893, “Nuclear transport modulators and uses thereof” (2011).
pIC50: −log10 of the molar value. Active and inactive are the calls of the source. The rule behind the calls is not given here.

Columns and labels:
BL-41 = assay: Cytotoxicity against human BL41 cells after 72 hrs by CellTiter96 AQueous one solution cell proliferation assay; assay type: functional, cell-based
Exportin-1 [1] = target: T1, Exportin-1 (Homo sapiens, UniProt O14980); assay: Inhibition of Crm1 in human MM1R cells assessed as potentiation of bortezomib-induced antiproliferative activity by measuring cell survival at 30 to 300 nM after 72 hrs by MTT assay; assay type: cell-based
786-0 = assay: Cytotoxicity against human 786-0 cells after 72 hrs by CellTiter96 AQueous one solution cell proliferation assay; assay type: functional, cell-based
HCT-15 = assay: Cytotoxicity against human HCT15 cells after 72 hrs by CellTiter96 AQueous one solution cell proliferation assay; assay type: functional, cell-based
MCF7 = assay: Cytotoxicity against human MCF7 cells after 72 hrs by CellTiter96 AQueous one solution cell proliferation assay; assay type: functional, cell-based
4T1 = assay: Cytotoxicity against mouse 4T1 cells after 72 hrs by CellTiter96 AQueous one solution cell proliferation assay; assay type: functional, cell-based
MM1R = assay: Cytotoxicity against human MM1R cells after 72 hrs by CellTiter96 AQueous one solution cell proliferation assay; assay type: functional, cell-based
HCT-8 = assay: Cytotoxicity against human HCT8 cells after 72 hrs by CellTiter96 AQueous one solution cell proliferation assay; assay type: functional, cell-based
SW-620 = assay: Cytotoxicity against human SW620 cells after 72 hrs by CellTiter96 AQueous one solution cell proliferation assay; assay type: functional, cell-based
PC-3 = assay: Cytotoxicity against human PC3 cells after 72 hrs by CellTiter96 AQueous one solution cell proliferation assay; assay type: functional, cell-based
LoVo = assay: Cytotoxicity against human LoVo cells after 72 hrs by CellTiter96 AQueous one solution cell proliferation assay; assay type: functional, cell-based
DLD-1 = assay: Cytotoxicity against human DLD1 cells after 72 hrs by CellTiter96 AQueous one solution cell proliferation assay; assay type: functional, cell-based
Exportin-1 [2] = target: T1, Exportin-1; assay: Inhibition of Crm1 in human HS-Sultan cells assessed as potentiation of bortezomib-induced antiproliferative activity by measuring cell survival at 30 to 300 nM after 72 hrs by MTT assay; assay type: cell-based
Homo sapiens [3] = organism: Homo sapiens; assay: Cytotoxicity against human H2935 cells after 72 hrs by CellTiter96 AQueous one solution cell proliferation assay; assay type: functional, cell-based
[4] = Antitumor activity against 350 mm'3 human HCT116 cells xenografted in mouse assessed as tumor growth inhibition at 75 mg/kg, sc qd administered for 5 days measured after day 24 relative to control; assay type: functional; settings: HCT-116, sc, read-out: TGI
HPAC = assay: Cytotoxicity against human HPAC cells after 72 hrs by CellTiter96 AQueous one solution cell proliferation assay; assay type: functional, cell-based
DU-145 = assay: Cytotoxicity against human DU145 cells after 72 hrs by CellTiter96 AQueous one solution cell proliferation assay; assay type: functional, cell-based
HS-Sultan = assay: Cytotoxicity against human HS-Sultan cells after 72 hrs by CellTiter96 AQueous one solution cell proliferation assay; assay type: functional, cell-based
NCI-H2030 = assay: Cytotoxicity against human NCI-H2030 cells after 72 hrs by CellTiter96 AQueous one solution cell proliferation assay; assay type: functional, cell-based
SW480 = assay: Cytotoxicity against human SW480 cells after 72 hrs by CellTiter96 AQueous one solution cell proliferation assay; assay type: functional, cell-based
NCI-H2122 = assay: Cytotoxicity against human NCI-H2122 cells after 72 hrs by CellTiter96 AQueous one solution cell proliferation assay; assay type: functional, cell-based
NCI-H226 = assay: Cytotoxicity against human NCI-H226 cells after 72 hrs by CellTiter96 AQueous one solution cell proliferation assay; assay type: functional, cell-based
Caov-3 = assay: Cytotoxicity against human Caov3 cells after 72 hrs by CellTiter96 AQueous one solution cell proliferation assay; assay type: functional, cell-based
WiDr = assay: Cytotoxicity against human WiDr cells after 72 hrs by CellTiter96 AQueous one solution cell proliferation assay; assay type: functional, cell-based
Homo sapiens [5] = organism: Homo sapiens; assay: Cytotoxicity against human LS123 cells after 72 hrs by CellTiter96 AQueous one solution cell proliferation assay; assay type: functional, cell-based
Exportin-1 [6] = target: T1, Exportin-1; assay: Inhibition of Crm1 in human MM1S cells assessed as potentiation of bortezomib-induced antiproliferative activity by measuring cell survival at 30 to 300 nM after 72 hrs by MTT assay; assay type: cell-based
MG-63 = assay: Cytotoxicity against human MG63 cells after 72 hrs by CellTiter96 AQueous one solution cell proliferation assay; assay type: functional, cell-based
[7] = Toxicity in mouse xenografted with 350 mm'3 human HCT116 cells assessed as effect on complete blood count at 150 mg/kg, sc qd administered for 5 days started on day 9 post 75 mg/kg dosing; assay type: organism-based, HCT-116; settings: in vivo, 120 h
Exportin-1 [8] = target: T1, Exportin-1; assay: Inhibition of Crm1 in human Jurkat cells assessed as potentiation of bortezomib-induced antiproliferative activity by measuring cell survival at 30 to 300 nM after 72 hrs by MTT assay; assay type: cell-based
Exportin-1 [9] = target: T1, Exportin-1; assay: Inhibition of Crm1 in human U2OS cells expressing GFP-fused HIV1 Rev assessed as decrease in nuclear export of GFP-fused HIV1 Rev after 1 hr by Hoechst 33258 staining-based assay; assay type: cell-based
COLO 320 = assay: Cytotoxicity against human COLO320 cells after 72 hrs by CellTiter96 AQueous one solution cell proliferation assay; assay type: functional, cell-based
HCC4006 = assay: Cytotoxicity against human HCC4006 cells after 72 hrs by CellTiter96 AQueous one solution cell proliferation assay; assay type: functional, cell-based
NCI-H460 = assay: Cytotoxicity against human NCI-H460 cells after 72 hrs by CellTiter96 AQueous one solution cell proliferation assay; assay type: functional, cell-based
RPMI18226 = assay: Cytotoxicity against human […] cells after 72 hrs by CellTiter96 AQueous one solution cell proliferation assay; assay type: functional, cell-based
HCT-116 = assay: Cytotoxicity against human HCT116 cells after 72 hrs by CellTiter96 AQueous one solution cell proliferation assay; assay type: functional, cell-based
MM1.S [10] = assay: Antitumor activity against 1300 mm'3 human MM1S cells xenografted in mouse assessed as tumor growth inhibition at 150 mg/kg, sc qd administered for 5 days; assay type: functional, organism-based
LS180 = assay: Cytotoxicity against human LS180 cells after 72 hrs by CellTiter96 AQueous one solution cell proliferation assay; assay type: functional, cell-based
[11] = Antitumor activity against 350 mm'3 human HCT116 cells xenografted in mouse assessed as tumor growth inhibition at 150 mg/kg, sc qd administered for 5 days started on day 9 post 75 mg/kg dosing measured after day 24 relative to control; assay type: functional, HCT-116
NCI-H520 = assay: Cytotoxicity against human NCI-H520 cells after 72 hrs by CellTiter96 AQueous one solution cell proliferation assay; assay type: functional, cell-based
HCC827 = assay: Cytotoxicity against human HCC827 cells after 72 hrs by CellTiter96 AQueous one solution cell proliferation assay; assay type: functional, cell-based
HeLa = assay: Cytotoxicity against human HeLa cells after 72 hrs by CellTiter96 AQueous one solution cell proliferation assay; assay type: functional, cell-based
Jurkat = assay: Cytotoxicity against human Jurkat cells after 72 hrs by CellTiter96 AQueous one solution cell proliferation assay; assay type: functional, cell-based
NCI-H1838 = assay: Cytotoxicity against human NCI-H1838 cells after 72 hrs by CellTiter96 AQueous one solution cell proliferation assay; assay type: functional, cell-based
[12] = Toxicity in mouse xenografted with 350 mm'3 human HCT116 cells assessed as effect on clinical chemistry parameters at 150 mg/kg, sc qd administered for 5 days started on day 9 post 75 mg/kg dosing; assay type: organism-based, HCT-116; settings: in vivo, 120 h
MM1.S [13] = assay: Antitumor activity against 130 mm'3 human MM1S cells xenografted in mouse assessed as tumor growth inhibition at 150 mg/kg, sc qd administered for 5 days; assay type: functional, organism-based

T1 sequence (O14980 whole entry): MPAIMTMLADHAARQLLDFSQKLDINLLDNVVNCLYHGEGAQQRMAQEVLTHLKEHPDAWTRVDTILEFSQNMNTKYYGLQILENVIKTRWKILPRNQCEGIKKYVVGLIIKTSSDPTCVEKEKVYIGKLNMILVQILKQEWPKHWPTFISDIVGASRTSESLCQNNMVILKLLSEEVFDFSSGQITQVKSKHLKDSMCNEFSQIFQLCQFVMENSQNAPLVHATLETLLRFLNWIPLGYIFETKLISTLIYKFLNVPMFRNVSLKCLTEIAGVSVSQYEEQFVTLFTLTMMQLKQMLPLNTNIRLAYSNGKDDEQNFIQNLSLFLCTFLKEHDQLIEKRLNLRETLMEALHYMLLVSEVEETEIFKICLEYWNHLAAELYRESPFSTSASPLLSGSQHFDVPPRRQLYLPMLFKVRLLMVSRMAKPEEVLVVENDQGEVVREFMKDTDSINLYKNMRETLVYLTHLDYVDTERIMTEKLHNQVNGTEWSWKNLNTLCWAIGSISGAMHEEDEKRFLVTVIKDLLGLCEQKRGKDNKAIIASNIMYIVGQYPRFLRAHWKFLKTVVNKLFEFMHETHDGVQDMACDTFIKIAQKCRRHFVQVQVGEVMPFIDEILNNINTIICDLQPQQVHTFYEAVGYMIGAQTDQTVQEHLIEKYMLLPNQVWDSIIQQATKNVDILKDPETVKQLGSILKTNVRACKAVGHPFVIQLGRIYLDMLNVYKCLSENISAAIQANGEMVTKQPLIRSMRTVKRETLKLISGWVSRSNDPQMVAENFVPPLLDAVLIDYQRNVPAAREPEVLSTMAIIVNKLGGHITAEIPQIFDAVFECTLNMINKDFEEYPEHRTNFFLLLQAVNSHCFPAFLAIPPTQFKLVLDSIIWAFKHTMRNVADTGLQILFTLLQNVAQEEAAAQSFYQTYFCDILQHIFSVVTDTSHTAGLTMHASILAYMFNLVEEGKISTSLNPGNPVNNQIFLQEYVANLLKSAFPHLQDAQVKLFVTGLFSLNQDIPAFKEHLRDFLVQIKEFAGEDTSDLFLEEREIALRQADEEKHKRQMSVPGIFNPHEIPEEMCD

- pIC50 (Exportin-1 [9]): ≥ 6.00
Structure (SMILES): CC(C)OC(=O)/C=C\n1cnc(-c2ccc(Cl)cc2)n1
- Activity (BL-41): Active
- inhibition (Exportin-1 [1]): Active
- Activity (786-0): Active
- Activity (HCT-15): Active
- Activity (MCF7): Active
- Activity (4T1): Active
- Activity (MM1R): Active
- Activity (HCT-8): Active
- Activity (SW-620): Active
- Activity (PC-3): Active
- Activity (LoVo): Active
- Activity (DLD-1): Active
- inhibition (Exportin-1 [2]): Active
- Activity (Homo sapiens [3]): Active
- inhibition in vivo at 75 mg/kg [4]: 31%
- Activity (HPAC): Active
- Activity (DU-145): Active
- Activity (HS-Sultan): Active
- Activity (NCI-H2030): Active
- Activity (SW480): Active
- Activity (NCI-H2122): Active
- Activity (NCI-H226): Active
- Activity (Caov-3): Active
- Activity (WiDr): Active
- Activity (Homo sapiens [5]): Active
- inhibition (Exportin-1 [6]): Active
- Activity (MG-63): Active
- Activity [7]: Non-Toxic
- inhibition (Exportin-1 [8]): Active
- Activity (COLO 320): Active
- Activity (HCC4006): Active
- Activity (NCI-H460): Active
- Activity (RPMI18226): Active
- Activity (HCT-116): Active
- TGI (MM1.S [10]): Active
- Activity (LS180): Active
- TGI [11]: 60%
- Activity (NCI-H520): Active
- Activity (HCC827): Active
- Activity (HeLa): Active
- Activity (Jurkat): Active
- Activity (NCI-H1838): Active
- Activity [12]: Non-Toxic
- TGI (MM1.S [13]): Active
